The values below come from ChEMBL document CHEMBL5360549, “Recent advances in the development of methyltransferase (MTase) inhibitors against (re)emerging arboviruses diseases dengue and Zika” (Eur J Med Chem, 2023).

By IC50 is commonly meant the point on the concentration scale where inhibition reaches its midpoint. As usually defined, the inhibition is the percentage by which the read-out fell short of the control. One may read the Ki as the equilibrium dissociation constant of an inhibitor or competing ligand from its target. A word on the CC50: it is the concentration giving 50% cytotoxicity. What is called EC50 is the midpoint of the concentration-response curve. Broadly, the Kd is the equilibrium constant for the complex coming apart.

Data set [1] in a line: Inhibition of Zika virus NS5-methyltransferase using GpppAC4 and [3H]AdoMet as substrate incubated for 30 mins by liquid scintillation counter analysis.
For data set [2], the system named is Zika virus. Kind of data set: Inhibition of Zika virus NS5-methyltransferase at 50 uM using GpppAC4 and [3H]AdoMet as substrate incubated for 30 mins by liquid scintillation counter analysis relative to control.
Data set [3] can be described thus: Inhibition of Dengue virus 3 guanine-N7 methyltransferase assessed as inhibition constant. More on the design: species or system dengue virus type 3.
Data set [4] is described as follows: Inhibition of Dengue virus 3 nucleoside-2'O-methyltransferase assessed as inhibition constant. More on the design: species or system dengue virus type 3.
Data set [5] concerns the target T1, mRNA cap guanine-N(7) methyltransferase (Homo sapiens, UniProt O43148). Kind of data set: Inhibition of human RNMT using GpppAC4 and [3H]AdoMet as substrate incubated for 30 mins by liquid scintillation counter analysis.
Data set [6] can be described thus: Inhibition of Dengue virus NS5-methyltransferase using GpppAC4 and [3H]AdoMet as substrate incubated for 30 mins by liquid scintillation counter analysis.
A short description of data set [7]: Cytotoxicity against hamster BHK-21 cells assessed as reduction in cell growth measured after 24 hrs by MTT assay. The data set is classed as toxicity, cell-based, Mesocricetus auratus. Background: Tetrazolium assays rely on reduction of a dye to a coloured formazan, in cell work by metabolically active cells.
Data set [8] is described as follows: Cytotoxicity against HEK293T cells assessed as reduction in cell growth measured after 24 hrs by MTT assay. Particulars: human. The data set is classed as toxicity, cell-based, HEK-293T.
The next data set deals with dengue virus type 1. The data set can be described thus: Antiviral activity against Dengue virus 1 infected in asian tiger mosquito C6/36 cells assessed as reduction in virus replication by methyleneblue staining based analysis. It is filed as functional, organism-based.
Data set [9] in a line: Cytotoxicity against human A549 cells assessed as reduction in cell growth measured after 24 hrs by MTT assay. The data set is classed as toxicity, cell-based.
Data set [10] is described as follows: Cytotoxicity against human Huh-7 cells assessed as reduction in cell growth measured after 24 hrs by MTT assay. The data set is classed as toxicity, cell-based.
For another data set, the system named is dengue virus type 4. The data set can be described thus: Antiviral activity against Dengue virus 4 infected in asian tiger mosquito C6/36 cells assessed as reduction in virus replication by methyleneblue staining based analysis. It is filed as functional, organism-based.
Data set [11] has as its system dengue virus type 2. The data set can be described thus: Antiviral activity against Dengue virus 2 infected in asian tiger mosquito C6/36 cells assessed as reduction in virus replication by methyleneblue staining based analysis. The data set is classed as functional, organism-based.
Data set [12] has as its system Zika virus. Kind of data set: Antiviral activity against Zika virus infected in African green monkey Vero cells assessed as reduction in viral plaques by plaque reduction assay. It is filed as functional, organism-based. (In general: In a plaque reduction assay, fewer plaques than in the control indicate reduced infectivity or spread.)
Data set [13] can be described thus: Binding affinity to Zika virus NS5-methyltransferase assessed as dissociation constant by isothermal titration microcalorimetry method. In general terms: In ITC the heat of successive injections is recorded.
Data set [14] relates to Zika virus. Kind of data set: Antiviral activity against Zika virus. The data set is classed as functional, organism-based.
Data set [15] deals with T1, mRNA cap guanine-N(7) methyltransferase. The data set can be described thus: Inhibition of human RNMT at 50 uM using polyU as substrate incubated for 10 mins in presence of [3H] ATP and ATP by liquid scintillation counter analysis relative to control.
The subject of data set [16] is dengue virus type 2. Kind of data set: Inhibition of Dengue virus 2 NS5-methyltransferase at 50 uM by HTRF assay relative to control.
Data set [17] deals with T1, mRNA cap guanine-N(7) methyltransferase. Kind of data set: Inhibition of human RNMT assessed as inhibition constant.

T1 sequence (O43148 whole entry): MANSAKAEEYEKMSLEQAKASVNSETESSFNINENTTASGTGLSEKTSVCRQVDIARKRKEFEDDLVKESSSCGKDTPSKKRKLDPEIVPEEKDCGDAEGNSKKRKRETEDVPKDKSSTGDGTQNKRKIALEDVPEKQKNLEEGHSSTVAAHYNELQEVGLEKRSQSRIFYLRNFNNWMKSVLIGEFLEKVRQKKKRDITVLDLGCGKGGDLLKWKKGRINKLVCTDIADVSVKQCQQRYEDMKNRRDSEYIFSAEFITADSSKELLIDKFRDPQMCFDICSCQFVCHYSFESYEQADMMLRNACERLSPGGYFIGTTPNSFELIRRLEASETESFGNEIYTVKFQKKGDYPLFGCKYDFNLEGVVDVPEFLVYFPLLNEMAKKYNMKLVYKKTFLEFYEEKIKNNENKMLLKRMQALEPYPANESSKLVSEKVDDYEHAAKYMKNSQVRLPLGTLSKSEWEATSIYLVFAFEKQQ

As to `COc1ccc(NC(=O)Nc2ccc3c(c2)c2ccccc2n3CCc2ccccc2)c(OC)c1`, half-maximal inhibition in data set [1] (IC50) required 23 µM. The compound also showed an inhibition with Zika virus [2] of 30%.
Take `N[C@H](CCSC[C@H]1O[C@@H](n2cnc3c(NCc4ccccc4)ncnc32)[C@H](O)[C@@H]1O)C(=O)O`: the Ki in data set [3] was 0.77 µM; in data set [4], 0.15 µM.
On to `N[C@H](CCSC[C@H]1O[C@@H](n2cnc3c(Nc4ccccc4)ncnc32)[C@H](O)[C@@H]1O)C(=O)O`, for which the Ki was found to be 0.77 µM in data set [3] and 0.15 µM in data set [4].
Regarding `N[C@H](CCSC[C@H]1O[C@@H](n2cnc3c(NCc4cccc(Cl)c4)ncnc32)[C@H](O)[C@@H]1O)C(=O)O`, the Ki in data set [3] was determined as 0.82 µM; in data set [4] it was 0.17 µM.
As for `N[C@H](CCSC[C@H]1O[C@@H](n2cnc3c(NCCc4ccccc4)ncnc32)[C@H](O)[C@@H]1O)C(=O)O`, the inhibitory constant (Ki) in data set [3] is 0.77 µM; in data set [4], 0.15 µM.
Take `Nc1ncnc2c1ncn2[C@@H]1O[C@H](C[C@@H](N)CC[C@H](N)C(=O)O)[C@@H](O)[C@H]1O` [SINEFUNGIN]: the IC50 came to 5.3 µM in data set [5] and 1.18 µM in data set [6].
Regarding `CNc1ncnc2c1ncn2[C@@H]1O[C@H](CSCC[C@@H](N)C(=O)O)[C@@H](O)[C@H]1O`, the values for the Ki in data set [3] and in data set [4] were 0.77 µM and 0.15 µM, respectively.
For `N[C@H](CCSC[C@H]1O[C@@H](n2cnc3c(NC4CC4)ncnc32)[C@H](O)[C@@H]1O)C(=O)O`, in that order: 0.77 µM and 0.15 µM.
As for `CCC(/C(C)=C/c1cc(OC)c(OC)cc1OC)c1cc(OC)c(OC)cc1OC` (stereo unspecified), the CC50 at 24 h in data set [7], in data set [8], in [9] and in data set [10] was greater than 80 µM in each case. In addition, the EC50 in the data set with dengue virus type 1 was 4.27 µM; in the data set on dengue virus type 4, 4.54 µM; in the data set on dengue virus type 2 [11], 4.5 µM.
Consider `Cc1ccc2c(c1)c(=O)c(C(=O)c1ccccc1)cn2CC(=O)Nc1ccccc1C`, for which the EC50 in the data set with Zika virus [12] was determined as 17.5 µM.
For `C[S+](CC[C@H](N)C(=O)[O-])C[C@H]1O[C@@H](n2cnc3c(N)ncnc32)[C@H](O)[C@@H]1O` (stereo partly specified) [ADEMETIONINE], the Kd in data set [13] came to 2.58 µM.
As to `O=C1c2cccc3cccc(c23)C(=O)N1CCc1ccc(S(=O)(=O)N2CCN(c3ccccc3)CC2)cc1`, in the data set with Zika virus [12], the EC50 is 4.8 µM.
Take `CCn1c2ccccc2c2cc(NC(=O)Nc3ccc([N+](=O)[O-])cc3C)ccc21`: the IC50 was 35 µM in [1] and 38 µM in data set [6]. The EC50 in the data set on Zika virus [14] was greater than 3.99 µM. Further, the inhibition with Zika virus [2] was found to be 30%.
For the compound `COCCCNC(=O)c1ccc(Cn2c(=O)c3ccccc3n(CC(=O)NCCc3ccc(OC)c(OC)c3)c2=O)cc1`, in the data set on Zika virus [12], the concentration giving a half-maximal response (EC50) is 12.5 µM.
`N[C@H](CCSC[C@H]1O[C@@H](n2cnc3c(NCc4cccc(Br)c4)ncnc32)[C@H](O)[C@@H]1O)C(=O)O`: the Ki in [3] was 0.77 µM; in data set [4], 0.15 µM.
Take `Cc1ccc(CNc2ncnc3c2ncn3[C@@H]2O[C@H](CSCC[C@@H](N)C(=O)O)[C@@H](O)[C@H]2O)cc1`: the Ki in [3] stood at 0.77 µM; in [4], 0.15 µM.
For `Cc1cccc(CNc2ncnc3c2ncn3[C@@H]2O[C@H](CSCC[C@@H](N)C(=O)O)[C@@H](O)[C@H]2O)c1`, in that order: 0.77 µM and 0.15 µM.
`Cc1cc(/C=C/c2ccc3cc(N(C)C)ccc3[n+]2C)c(C)n1-c1ccccc1`: the inhibition in data set [15] came to 98.6%; in the data set on dengue virus type 2 [16], 97.8%.
Regarding `Cc1ccnc(NS(=O)(=O)c2ccc(NC(=O)c3ccc(S(=O)(=O)N4CCc5ccccc5C4)cc3)cc2)n1`, the EC50 in the data set with Zika virus [12] amounted to 17.6 µM.
Regarding `Nc1ncnc2c1ncn2[C@@H]1O[C@H](CSCC[C@H](N)C(=O)O)[C@@H](O)[C@H]1O` [S-ADENOSYLHOMOCYSTEINE], the results for the Ki in [3], in [17] and in [4] were 3.19 µM, greater than 50 µM and 0.57 µM, respectively.
Turning to `N[C@H](CCSC[C@H]1O[C@@H](n2cnc3c(NCc4cccc(I)c4)ncnc32)[C@H](O)[C@@H]1O)C(=O)O`, the Ki came to 0.77 µM in data set [3] and 0.15 µM in data set [4].
Take `N[C@H](CCSC[C@H]1O[C@@H](n2cnc3c(NCc4cccc(F)c4)ncnc32)[C@H](O)[C@@H]1O)C(=O)O`: the Ki came out at 0.77 µM in [3] and 0.15 µM in data set [4].
As for `CCCCCCCCCCCCCCCC[N+](C)(C)CCN(Cc1ccc(OC)cc1)c1ncccn1`, the inhibition in data set [15] came to 96%; in the data set with dengue virus type 2 [16], 98.6%.
For `O=C(Nc1ccc(I)cc1)Nc1ccc2c(c1)c1ccccc1n2Cc1ccccc1`, half-maximal inhibition in data set [1] (IC50) was put at 23 µM. Also, the inhibition with Zika virus [2] worked out at 30%.
With `Cc1ccccc1CNc1ncnc2c1ncn2[C@@H]1O[C@H](CSCC[C@@H](N)C(=O)O)[C@@H](O)[C@H]1O`, the Ki in data set [3] stood at 0.77 µM; in data set [4], 0.15 µM.
In data set [1], `COc1ccc(NC(=O)Nc2ccc3c(c2)c2ccccc2n3Cc2ccccc2)c(OC)c1` had a half-inhibitory concentration (IC50) of 23 µM. The compound also yielded an inhibition in the data set on Zika virus [2] of 30%.
Turning to `Nc1ncnc2c1ncn2[C@@H]1O[C@H](CN(CCC(N)C(=O)O)Cc2ccc(F)cc2)[C@@H](O)[C@H]1O` (stereo partly specified), the Kd in data set [13] came out at 24.3 µM.
